Results as given in article PMC8329300, “X-ray crystallography reveals molecular recognition mechanism for sugar binding in a melibiose transporter MelB” (Communications Biology, 2021).
Where “and” joins values, the source holds several entries; their conditions need not be identical. Identical values can stand only once.

What was measured:
D59C MelBSt = target: T1, D59C MelBSt (Salmonella typhimurium, UniProt P30878, D59C); experiment: Trp→dansyl galactoside (D2G) FRET time trace and IC50 of D2G displacement (D59C); assay type: binding
T1 construct: Cys scanning mutagenesis for the full-length MelBSt; His10 (C); made in house; host or cells: E. coli DW2
Method: Fig. 1 Functional characterizations. a [^3H] Melibiose transport time course with intact cells. […] Inset, melibiose fermentation assay. Transformants with DW2 strain were plated on MacConkey agar plates containing 30 mM melibiose as the sole carbohydrate source and pH sensor neutral red, and incubated at 37 °C for 16–18 h before imaging. Number of tests = 3, from different batch of cells or duplicate measurements from same batch of sample. b Ligand binding by Trp→dansyl galactoside (D^2G) FRET assay. Purified proteins at 1 μM concentration in 20 mM Tris-HCl, pH 7.5, 100 mM CholCl, 10% glycerol, and 0.03% UDM were subjected to steady-state fluorescence measurements as described in Methods. On the time-trace, 1.8 μL of 1 mM D^2G at 10 μM was added into 180 μL of protein solutions at 1-min point, followed by supplying 10 μL of 5 mM DDMB or 5 mM α-NPG to displace the bound D^2G. For testing Na^+ or Li^+ binding, they are added into the solution before displacement with the second sugar. The structure of DDMB or α-NPG is shown in a chair form, and the carbon positions are labeled. Glycosidic bonds are indicated by arrows. Both are α-galactosides containing a substituent at the anomeric carbon-1. The data were from duplicate measurements.
Steady-state fluorescence measurements were performed with an AMINCO-Bowman series 2 spectrometer with purified MelBSt at 1 μM in 20 mM Tris-HCl, pH 7.5, 100 mM CholCl, 10% glycerol, 0.03% UDM. Using an excitation wavelength at 290 nm, the emission intensity was recorded at 490 nm. On a time-trace, D^2G, NaCl or LiCl, then DDMB or α-NPG, were sequentially added into the protein solutions at a 1 min-interval. […] An identical volume of water was used for the control. The decrease in intensity after each addition of DDMB or α-NPG was corrected by the dilution effect and plotted as a function of the accumulated α-NPG concentrations or estimated DDMB concentrations. The 50% inhibitory concentration (IC50) was determined by fitting a hyperbolic function to the data (OriginPro 2020b). The final concentration of each detergent is estimated to be 234 μM, which is less than their CMC value for (DDMB, 295 μM).
Supplementary Figure 2. Determination of DDMB binding affinity to MelBSt. (a) Titration with DDMB or a-NPG. MelBSt in 20 mM Tris-HCl, pH 7.5, 100 mM CholCl, 10% glycerol, 0.03% UDM without (1) or with 100 mM NaCl (2) were added with D2G at 10 μM at 1-min time point as indicated by triangle symbols on the Trp®dansyl FRET time trace. Starting at the 2-min of time point, DDMB or a-NPG solution was supplemented consecutively at a 1-min interval into MelBSt solution till no change in fluorescence intensity reached as indicated in star symbols. DDM and UDM were used as negative controls. 1% DDM or UDM was titrated into the mixture, The […]
At 2-min time point, additions of galactosides were colored in pink, a-NPG in yellow, UDM in blue, DDM in light blue, water in gray traces, respectively. (b) IC50 determination. The intensity decrease at each titration were corrected by the dilution effect, and plotted as a function of the accumulated DDMB or α-NPG concentration. The 50% inhibitory concentration (IC50) was determined by fitting the data to a hyperbolic function (OriginPro 2020b). Results are presented in […]
(1 picture or pasted object on this page, not shown here)

WT MelBSt = target: T2, WT MelBSt (Salmonella typhimurium, UniProt P30878); conditions: cited from earlier work
T2 construct: Cys scanning mutagenesis for the full-length MelBSt; His10 (C); made in house; host or cells: E. coli DW2
T2 sequence (P30878 whole entry): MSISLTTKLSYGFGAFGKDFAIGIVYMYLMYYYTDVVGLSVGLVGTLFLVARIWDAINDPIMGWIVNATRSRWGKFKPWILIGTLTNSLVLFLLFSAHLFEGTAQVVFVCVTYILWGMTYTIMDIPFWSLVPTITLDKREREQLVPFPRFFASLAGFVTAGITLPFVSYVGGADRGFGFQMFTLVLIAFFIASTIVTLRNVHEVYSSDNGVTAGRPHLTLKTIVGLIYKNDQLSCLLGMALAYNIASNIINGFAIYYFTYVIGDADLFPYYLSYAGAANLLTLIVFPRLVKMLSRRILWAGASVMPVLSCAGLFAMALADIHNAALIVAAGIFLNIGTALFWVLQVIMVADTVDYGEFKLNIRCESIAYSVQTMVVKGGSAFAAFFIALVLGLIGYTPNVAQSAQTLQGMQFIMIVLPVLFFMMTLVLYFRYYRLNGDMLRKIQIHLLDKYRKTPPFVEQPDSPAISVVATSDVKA

T1 sequence (P30878 whole entry D59C): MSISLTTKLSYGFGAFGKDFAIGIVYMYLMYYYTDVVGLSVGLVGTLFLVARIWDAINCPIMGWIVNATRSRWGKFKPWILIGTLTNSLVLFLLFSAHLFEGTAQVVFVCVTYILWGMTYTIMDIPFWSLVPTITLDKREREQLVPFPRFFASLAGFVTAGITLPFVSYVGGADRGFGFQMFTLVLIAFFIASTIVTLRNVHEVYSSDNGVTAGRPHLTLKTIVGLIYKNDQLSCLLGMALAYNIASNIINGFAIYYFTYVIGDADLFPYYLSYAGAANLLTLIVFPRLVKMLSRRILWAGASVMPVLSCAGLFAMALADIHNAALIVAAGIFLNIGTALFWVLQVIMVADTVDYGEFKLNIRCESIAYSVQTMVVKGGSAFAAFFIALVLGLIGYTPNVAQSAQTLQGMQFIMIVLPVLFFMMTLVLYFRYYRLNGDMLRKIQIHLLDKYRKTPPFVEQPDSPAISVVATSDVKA

With CN(C)c1cccc2c(S(=O)(=O)NCCS[C@@H]3O[C@H](CO)[C@H](O)[C@H](O)[C@H]3O)cccc12 [D^2G, 2′-(N-dansyl)aminoalkyl-1-thio-β-D-galactopyranoside] the “Trp to D2G FRET signal, Test” value (D59C MelBSt; D59C MelBSt mutant H+, Time 1.58333) was 1.236 and 1.275, the “Trp to D2G FRET signal, Test” value (D59C MelBSt; D59C MelBSt mutant H+, Time 1.6) was 1.234 and 1.287 and the “Trp to D2G FRET signal, Test” value (D59C MelBSt; D59C MelBSt mutant H+, Time 1.61667) was 1.243 and 1.289. For the same compound, the “Trp to D2G FRET signal, Test” value (D59C MelBSt; D59C MelBSt mutant H+, Time 1.63333) was 1.234 and 1.283, the “Trp to D2G FRET signal, Test” value (D59C MelBSt; D59C MelBSt mutant H+, Time 1.65) was 1.232 and 1.292 and the “Trp to D2G FRET signal, Test” value (D59C MelBSt; D59C MelBSt mutant H+, Time 1.66667) was 1.262 and 1.286. For the same compound, the “Trp to D2G FRET signal, Test” value (D59C MelBSt; D59C MelBSt mutant H+, Time 1.68333) was 1.239 and 1.271, the “Trp to D2G FRET signal, Test” value (D59C MelBSt; D59C MelBSt mutant H+, Time 1.7) was 1.251 and 1.2854 and the “Trp to D2G FRET signal, Test” value (D59C MelBSt; D59C MelBSt mutant H+, Time 1.71667) was 1.228 and 1.2851. For the same compound, the “Trp to D2G FRET signal, Test” value (D59C MelBSt; D59C MelBSt mutant H+, Time 1.73333) was 1.233 and 1.277, the “Trp to D2G FRET signal, Test” value (D59C MelBSt; D59C MelBSt mutant H+, Time 1.75) was 1.255 and 1.269 and the “Trp to D2G FRET signal, Test” value (D59C MelBSt; D59C MelBSt mutant H+, Time 1.76667) was 1.25 and 1.265. The “Trp to D2G FRET signal, Test” value (D59C MelBSt; D59C MelBSt mutant H+, Time 1.78333) was 1.239 and 1.277, the “Trp to D2G FRET signal, Test” value (D59C MelBSt; D59C MelBSt mutant Li+, Time 1.58333) was 1.183 and 1.18 and 1.353 and the “Trp to D2G FRET signal, Test” value (D59C MelBSt; D59C MelBSt mutant Li+, Time 1.6) was 1.194 and 1.191 and 1.312. The “Trp to D2G FRET signal, Test” value (D59C MelBSt; D59C MelBSt mutant Li+, Time 1.61667) was 1.182 and 1.19 and 1.349, the “Trp to D2G FRET signal, Test” value (D59C MelBSt; D59C MelBSt mutant Li+, Time 1.63333) was 1.194 and 1.172 and 1.325 and the “Trp to D2G FRET signal, Test” value (D59C MelBSt; D59C MelBSt mutant Li+, Time 1.65) was 1.192 and 1.191 and 1.377. For the same compound, the “Trp to D2G FRET signal, Test” value (D59C MelBSt; D59C MelBSt mutant Li+, Time 1.66667) was 1.194 and 1.178 and 1.324, the “Trp to D2G FRET signal, Test” value (D59C MelBSt; D59C MelBSt mutant Li+, Time 1.68333) was 1.1972 and 1.188 and 1.334 and the “Trp to D2G FRET signal, Test” value (D59C MelBSt; D59C MelBSt mutant Li+, Time 1.7) was 1.181 and 1.193 and 1.331. The “Trp to D2G FRET signal, Test” value (D59C MelBSt; D59C MelBSt mutant Li+, Time 1.71667) was 1.193 and 1.183 and 1.334, the “Trp to D2G FRET signal, Test” value (D59C MelBSt; D59C MelBSt mutant Li+, Time 1.73333) was 1.188 and 1.175 and 1.3208 and the “Trp to D2G FRET signal, Test” value (D59C MelBSt; D59C MelBSt mutant Li+, Time 1.75) was 1.1972 and 1.183 and 1.3266. The “Trp to D2G FRET signal, Test” value (D59C MelBSt; D59C MelBSt mutant Li+, Time 1.76667) was 1.189 and 1.172 and 1.31, the “Trp to D2G FRET signal, Test” value (D59C MelBSt; D59C MelBSt mutant Na+, Time 1.58333) was 1.29 and 1.292 and 1.375 and the “Trp to D2G FRET signal, Test” value (D59C MelBSt; D59C MelBSt mutant Na+, Time 1.6) was 1.287 and 1.293 and 1.38. For the same compound, the “Trp to D2G FRET signal, Test” value (D59C MelBSt; D59C MelBSt mutant Na+, Time 1.61667) was 1.293 and 1.2915 and 1.362, the “Trp to D2G FRET signal, Test” value (D59C MelBSt; D59C MelBSt mutant Na+, Time 1.63333) was 1.299 and 1.278 and 1.358 and the “Trp to D2G FRET signal, Test” value (D59C MelBSt; D59C MelBSt mutant Na+, Time 1.65) was 1.272 and 1.269 and 1.372. For the same compound, the “Trp to D2G FRET signal, Test” value (D59C MelBSt; D59C MelBSt mutant Na+, Time 1.66667) was 1.295 and 1.266 and 1.37, the “Trp to D2G FRET signal, Test” value (D59C MelBSt; D59C MelBSt mutant Na+, Time 1.68333) was 1.287 and 1.289 and 1.378 and the “Trp to D2G FRET signal, Test” value (D59C MelBSt; D59C MelBSt mutant Na+, Time 1.7) was 1.301 and 1.273 and 1.365. The “Trp to D2G FRET signal, Test” value (D59C MelBSt; D59C MelBSt mutant Na+, Time 1.71667) was 1.2912 and 1.279 and 1.361, the “Trp to D2G FRET signal, Test” value (D59C MelBSt; D59C MelBSt mutant Na+, Time 1.73333) was 1.293 and 1.29 and 1.3441 and the “Trp to D2G FRET signal, Test” value (D59C MelBSt; D59C MelBSt mutant Na+, Time 1.75) was 1.291 and 1.287 and 1.358. For the same compound, the “Trp to D2G FRET signal, Test” value (D59C MelBSt; D59C MelBSt mutant Na+, Time 1.76667) was 1.307 and 1.279 and 1.387, the “Trp to D2G FRET signal, Test” value (D59C MelBSt; D59C MelBSt mutant Na+, Time 1.78333) was 1.304 and 1.264 and the Kd (WT MelBSt) was 10 µM.
